Assay results: PMC10302868 (Molecules, 2023)
Converted amounts (≈) assume the structure as drawn. Where two headings read alike, the source gives them in different places.

How the values were obtained:
[1] = tested on: P. aeruginosa ATCC 27853; test: MIC determination; type: cell-based; details: Pseudomonas aeruginosa, ATCC27853
[2] = tested on: S. pyogenes SPY-0253; test: MIC determination; type: cell-based; details: Streptococcus pyogenes, SPY0253
[3] = tested on: S. aureus SAU-0167 (MRSA); test: MIC determination; type: cell-based; details: Staphylococcus aureus
[4] = tested on: E. coli ATCC 25922; test: MIC determination; type: cell-based; details: Escherichia coli, ATCC25922
[5] = tested on: E. faecalis ATCC 29212; test: MIC determination; type: cell-based; details: Enterococcus faecalis, ATCC29212
[6] = tested on: S. aureus ATCC 29213 (MSSA); test: MIC determination; type: cell-based; details: Staphylococcus aureus
[7] = tested on: A. baumannii ATCC 17978; test: MIC determination; type: cell-based; details: Acinetobacter baumannii, ATCC17978
[8] = tested on: M. abscessus-C28; test: MIC determination (Microplate Alamar Blue Assay); type: cell-based, Mycobacterium abscessus; details: Mycobacteroides abscessus, 72 h
[9] = tested on: S. aureus ATCC 700698 (MRSA); test: MIC determination; type: cell-based; details: Staphylococcus aureus
[10] = tested on: M. abscessus-C16; test: MIC determination (Microplate Alamar Blue Assay); type: cell-based, Mycobacterium abscessus; details: Mycobacteroides abscessus; M. abscessus-C16, 72 h
[11] = tested on: S. epidermidis SEP-1024; test: MIC determination; type: cell-based; details: Staphylococcus epidermidis, SEP1024
[12] = tested on: S. aureus SAU-9922 (MRSA); test: MIC determination; type: cell-based; details: Staphylococcus aureus
[13] = tested on: K. pneumoniae ATCC BAA-1705; test: MIC determination; type: cell-based; details: Klebsiella pneumoniae, ATCCBAA1705
[14] = tested on: E. faecalis EFA-1299; test: MIC determination; type: cell-based; details: Enterococcus faecalis, EFA1299
[15] = tested on: E. faecium EFA-0221 (VRE); test: MIC determination; type: cell-based; details: Enterococcus faecium
[16] = tested on: M. abscessus-C58; test: MIC determination (Microplate Alamar Blue Assay); type: cell-based, Mycobacterium abscessus; details: Mycobacteroides abscessus; M. abscessus-C58, 72 h
[17] = tested on: S. maltophilia STM-0001; test: MIC determination; type: cell-based; details: Stenotrophomonas maltophilia, STM0001
[18] = tested on: S. pneumoniae SPN-1169; test: MIC determination; type: cell-based; details: Streptococcus pneumoniae, SPN1169
[19] = tested on: M. abscessus-GDI; test: MIC determination (Microplate Alamar Blue Assay); type: cell-based, Mycobacterium abscessus; details: Mycobacteroides abscessus, 72 h
[20] = tested on: A. baumannii ATCC BAA-1605; test: MIC determination; type: cell-based; details: Acinetobacter baumannii, ATCCBAA1605
[21] = Pharmacokinetics in rats; details: Rat
[22] = male, Sprague-Dawley, rat, in vivo, iv, 3 mg/kg
[23] = tested on: MDR1-MDCK; details: cited from earlier work
[24] = in vivo; details: male, Sprague-Dawley, rat
[25] = tested on: M. bovis BCG (Pasteur 1173P2); test: microbe, parasite or virus in culture; type: cell-based; details: Mycobacterium tuberculosis variant bovis BCG, 168 h
[26] = tested on: M. tuberculosis H37Rv ATCC27294; test: MIC determination (Microplate Alamar Blue Assay); type: cell-based, Mycobacterium tuberculosis; details: M. tuberculosis H37Rv ATCC27294, 7 days
[27] = human
[28] = tested on: Wolbachia-infected C6/36 cells (wAlb); details: cited from earlier work
[29] = allometric scaling from rat volume of distribution
[30] = tested on: M. smegmatis mc^2155; test: MIC determination (Microplate Alamar Blue Assay); type: cell-based; details: Mycolicibacterium smegmatis; M. smegmatis mc^2155, 72 h
[31] = tested on: Wolbachia-infected LDW1 cells (wMel); details: cited from earlier work
[32] = tested on: H. influenzae ATCC 49247; test: MIC determination; type: cell-based; details: Haemophilus influenzae, ATCC49247
[33] = in vitro; details: African green monkey
[34] = physchem
[35] = in vitro; type: in vitro ADME; details: human, plasma, pH 7.4
Procedure: Human plasma (BIOMEX GmbH) was mixed from more than 6 individuals and rat plasma was mixed from more than 10 rats. […] The samples were matched with opposite blank buffer to obtain a final volume of 100 µL with a volume ratio of the matrix: Dialysis Buffer (100 mM sodium phosphate and 150 mM NaCl, pH 7.4) (1:1) in each well. […] The plate was sealed and shaken at 800 rpm for 10 min. Then these T0 samples were stored at 4 °C pending further processing along with other post-dialysis samples. […] The plate was rotated at 100 rpm in a humidified incubator with 5% CO2 at 37 °C for 4 h. At the end of the dialysis, all samples were further processed by protein precipitation for LC-MS/MS analysis. The %bound was calculated using the following equations:%Unbound = 100 × F/T %Bound = 100 − %Unbound
F = Free compound concentration as determined by the calculated concentration on the buffer side of the membrane.
T = Total compound concentration as determined by the calculated concentration on the matrix side of the membrane.

[36] = in vitro; type: in vitro ADME; details: hepatocytes
Procedure: Cryopreserved hepatocytes from male SD rats and humans were both purchased from Bioreclamation-IVT. The human cryopreserved hepatocytes were pooled from 10 human donors with a viability of 77.9% tested by trypan blue. The rats’ cryopreserved hepatocytes were pooled from 12 male SD (Sprague Dawley) rats, and the cell viability was 80.9%. The hepatocytes were diluted to 0.5 × 10^6/mL cell suspension with pre-warmed incubation medium ([…]). […] At 15, 30, 60, and 90 min, the samples were mixed and then 25 μL of each sample was transferred at each time point to a well containing 125 μL of ice-cold stop solution (acetonitrile containing 200 ng/mL tolbutamide and labetalol as internal standards) followed by mixing. The samples were vortexed on a plate shaker at 500 rpm for 10 min, and centrifuged at 3220× g for 20 min at 4 °C. The supernatants were transferred to ultra-pure water and analyzed by LC-MS/MS. […] CLint (hep) = k/million cells per mL CLint (liver) = CLint (hep) × liver weight (g/kg body weight) × hepatocellularity

[37] = in vitro; type: in vitro ADME; details: microsomes
Procedure: Microsomes from humans and rats were purchased from Corning (Shanghai, China) and Xenotech (Kansas City, KS, USA), respectively. The working solution of liver microsomes was prepared in 100 mM phosphate buffer at 0.56 mg/mL. The quench solution was cold (4 °C) acetonitrile (ACN) containing 200 ng/mL Verapamil and 200 ng/mL Imipramine as internal standards (IS). An amount of 445 µL of the microsomal working solution was transferred into the pre-warmed plates T120 (incubate time: 120 min) and NCF 120 (no co-factor NADPH regenerating system), then the plates were incubated at 37 °C for 10 min with constant shaking. An amount of 54 µL of the liver microsomes was transferred into a blank plate, and 6 µL NADPH and 180 µL quenching solution were added to the blank plate. The microsomal working solution (0.56 mg/mL) and the compound working solution (100 µM) were mixed 3 times thoroughly and 54 µL was immediately removed for the 0 min point. Then 44 µL NADPH cofactor was added to the incubation plate, and shaken at 37 °C for 120 min. At 15, 30, 60, 90, and 120 min, a 60 µL sample was transferred to the quenching solution and centrifuged at 4000 rpm for 20 min at 4 °C [6]. Then, 80 µL supernatant was transferred to the HPLC water and shaken for 10 min before LC-MS/MS analysis.

Which results are given for `NCC[C@H](O)C(=O)N[C@@H]1C[C@H](N)[C@@H](O[C@H]2O[C@H](CN)[C@@H](O)[C@H](O)[C@H]2O)[C@H](O)[C@H]1O[C@H]1O[C@H](CO)[C@@H](O)[C@H](N)[C@H]1O` [Amikacin]?
MIC [1]: 8 µg/mL (≈ 13.7 µM); MIC [2]: 32 µg/mL (≈ 54.6 µM); MIC [3]: > 32 µg/mL; MIC [4]: 8 µg/mL (≈ 13.7 µM); MIC [5]: > 32 µg/mL; MIC [6]: 8 µg/mL (≈ 13.7 µM); MIC [7]: 2 µg/mL (≈ 3.42 µM); MIC [8]: 14.5 µg/mL (≈ 24.7 µM); MIC [9]: > 32 µg/mL; MIC [10]: 12.7 µg/mL (≈ 21.7 µM); MIC [11]: ≤ 1 µg/mL; MIC [12]: 2 µg/mL (≈ 3.42 µM); MIC [13]: > 32 µg/mL; MIC [14]: > 32 µg/mL; MIC [15]: > 32 µg/mL; MIC [16]: 12.8 µg/mL (≈ 21.9 µM); MIC [17]: > 32 µg/mL; MIC [18]: > 32 µg/mL; MIC [19]: 6.38 µg/mL (≈ 10.9 µM)

What does the source list for `C=C[C@]1(C)C[C@@H](OC(=O)COc2ccc3c(c2F)B(O)OC3)[C@]2(C)[C@H](C)CC[C@]3(CCC(=O)[C@H]32)[C@@H](C)[C@@H]1O` [AN11251]?
MIC [20]: 32 µg/mL (≈ 60.6 µM); MIC [1]: > 32 µg/mL; MIC [2]: 0.063 µg/mL (≈ 0.119 µM); time until eliminated (plasma concentration-time curve) [21]: ≤ 8 h; MIC [3]: 0.063 µg/mL (≈ 0.119 µM); MRT [22]: 1.04 h; apparent permeability (Papp) [23]: 14.1 ×10⁻⁶ cm/s; bioavailability [24]: 19.2%; Tmax ([24]; iv, 3 mg/kg): 0 h; Vd ([24]; iv, 3 mg/kg): 1.44 L/kg; clearance ([24]; iv, 3 mg/kg): 19.8 mL/min/kg; half-life ([24]; iv, 3 mg/kg): 1.75 h; MRT ([24]; iv, 3 mg/kg): 1.22 h; half-life ([24]; po, 10 mg/kg): 2.39 h; MRT ([24]; po, 10 mg/kg): 2.26 h; MIC [4]: > 32 µg/mL; MIC [5]: 5 µg/mL (≈ 9.46 µM); MIC [25]: 2.5 µg/mL (≈ 4.73 µM); MIC [26]: 0.952 µg/mL (≈ 1.8 µM); MIC ([26]; Mycobacterium tuberculosis, 168 h, read-out: MIC): 0.925 µg/mL (≈ 1.75 µM); MIC [6]: < 0.039 µg/mL; half-life [27]: 4.2 h; MIC [7]: 20 µg/mL (≈ 37.8 µM); MIC [8]: > 20 µg/mL; MIC [9]: < 0.039 µg/mL; EC50 [28]: 0.00792 µg/mL (≈ 0.015 µM); predicted human volume of distribution [29]: 1.029 L/kg; MIC [30]: > 20 µg/mL; MIC [10]: > 20 µg/mL; MIC [11]: 0.063 µg/mL (≈ 0.119 µM); EC50 [31]: 0.000792 µg/mL (≈ 0.0015 µM); MIC [32]: 2 µg/mL (≈ 3.78 µM); CC50 [33]: 27 µg/mL (≈ 51.1 µM); MIC [12]: 0.063 µg/mL (≈ 0.119 µM); logP [34]: 4.5; fraction unbound at 4 h, 2 µM [35]: 0.024; MIC [13]: > 32 µg/mL; MIC [14]: 4 µg/mL (≈ 7.57 µM); MIC [15]: 0.125 µg/mL (≈ 0.237 µM); CLint scaled at 20 µg/mL ([36]; human): 180 mL/min/kg; hepatocyte CLint at 20 µg/mL ([36]; human): 64.8 µL/min/1e6 cells; CLint scaled at 20 µg/mL ([36]; male, Sprague-Dawley, rat): 876 mL/min/kg; MIC [16]: > 20 µg/mL; MIC [17]: > 32 µg/mL; CLint scaled ([37]; human): 300 mL/min/kg; CLint scaled ([37]; rat): 333 mL/min/kg; MIC [18]: 0.5 µg/mL (≈ 0.946 µM); MIC [19]: > 20 µg/mL
